Experimental data taken from PMC7222207, “Characterization of a CholesteroNitrone (ISQ-201), a Novel Drug Candidate for the Treatment of Ischemic Stroke” (Antioxidants, 2020).
Like-named read-outs stand apart in the source and are kept apart here.

Experiments:
[1] = Pharmacokinetics study, plasma concentration after intravenous bolus (LC-MS/MS); assay type: in vivo, male Wistar rats; conditions: rat; for clearance / Vd / k el / half-life / Cmax / AUC(0-t) / C0: male, Wistar; for clearance / Vd / k el / half-life / Cmax / AUC(0-t) / C0 / Clast: plasma; for clearance / Vd / k el / Cmax / AUC(0-t) / C0 / Clast: mean ± SE n=6; for clearance: read-out: Cl (terminal clearance) (converted); for Vd: read-out: Vd (volume of distribution); for k el: read-out: kel (terminal elimination constant) (converted); for half-life: iv; for AUC(0-t): read-out: AUC0–8h; for C0: read-out: C0 (initial concentration)
Experimental: For the study of the variation of the concentration of ISQ-201 in plasma, male Wistar rats (10–12 weeks, Charles River) were randomly divided into three groups (n = 6 per group) and treated intravenously, as a bolus with different concentrations of ISQ-201 (0.07, 0.25, and 1.0 mg/kg, respectively). Plasma samples were taken 0.25, 0.5, 1, 2, 4, and 8 h after the administration and the ISQ-201 concentration was determined by LC–MS/MS analysis. A noncompartmental analysis was performed for the determination of the toxicokinetic parameters, using the Phoenix 64 WinNonlin program (version 8.0). This study was carried out by Swiss BioQuant AG (Reinach, Switzerland).
Study of the variation of ISQ-201 concentration after a single bolus intravenous administration was carried out with different doses of ISQ-201 (0.07, 0.25, and 1.00 mg/kg). Plasma samples were collected 0.25, 0.5, 1, 2, 4, and 8 h after administration, and the ISQ-201 concentration was determined through LC/MS–MS (Figure 7). Pharmacokinetic parameters were calculated through a non-compartmental analysis (Table 2).

[2] = test system: transient forebrain ischemia, hippocampal CA1 and cortical neurons; experiment: Global cerebral ischemia (4VO), neuronal death by Fluoro-Jade B staining; assay type: in vivo, male Wistar rats; conditions: for maximum neuroprotection (Emax), neuronal death assay: iv at reperfusion onset
Experimental: Transient forebrain ischemia was induced in adult male Wistar rats (10–12 weeks, Charles River) by the standard four-vessel occlusion model (4VO) described previously. Briefly, both vertebral arteries were irreversibly occluded by electrocoagulation under anesthesia, with a mixture of atropine, ketamine, and diazepam (0.25, 62.5, and 5 mg/kg, respectively) delivered through intraperitoneal injection. After 24 h, ischemia was induced by carotid occlusion with atraumatic clips, for 15 min, and then the clips were removed from the carotid arteries to allow reperfusion. Body temperature was maintained at 37 °C during the surgical procedure. The animals were studied after 5 days of reperfusion (R5d) after which they were sacrificed. Sham control animals were prepared in the same way, without carotid occlusion. We performed a power analysis (http://www.biomath.info/power/ttest.htm) to determine the sample size. Significance level and statistical power were set at 0.05 and 0.8 (80%), respectively, which afforded a sample size of […] subjects per group. The treatments were administered with concealed allocation, and in randomized order, according to a computer-generated randomization program. Ischemic animals were treated with a vehicle solution (saline/ethanol, 90:10 vol/vol) or nitrone ISQ-201, dissolved in a vehicle solution through a single intravenous tail injection, when the carotid arteries were unclamped for reperfusion. In therapeutic window experiments, the animals were treated once at the reperfusion onset or at the set reperfusion time points, after ischemia. For the administration, at 6 h and 48 h of reperfusion after ischemia, the animals were anesthetized with isoflurane for 2–3 min and 5 min, respectively, prior to the treatment administration. An independent researcher prepared the treatments for each animal, according to the randomization schedule. Data of each experimental group were normalized to each vehicle control group. All procedures associated with animal experiments were approved by the Animal Care Ethics Committee of the Hospital Universitario Ramón y Cajal (Madrid, Spain, code no. 06/2015) and were performed according to the ARRIVE guidelines.
After 5 days of reperfusion (R5d), the animals were euthanized by transcardiac perfusion, under deep anesthesia. […]
Brain cryosections (10 µm thick) from ischemic animals reperfused for 5 days were used after fixation to detect neuronal death by Fluoro-Jade B staining, and visualized by fluorescence microscopy. Labeled (dead) neuronal cells (in green) were counted, as in TUNEL assay (see below). Data from different animals of each experimental group were independently analyzed by two observers, and treatment information was kept concealed throughout the study.

[3] = test system: transient forebrain ischemia; experiment: Long-term behavioral tests in Y maze (exploration, spatial recognition, spatial memory); assay type: in vivo, male Wistar rats; conditions: 0.05 mg/kg iv at reperfusion onset, 11 weeks after ischemic reperfusion
Experimental: For the long-term studies, animals were subjected to behavioral tests, in order to assess their spontaneous spatial alternation and spatial memory skills, as markers of neurological damage present in longer periods, after the surgical procedure. According to previous literature, we selected the Y maze, in which both the exploration activity (spatial recognition) and spatial memory were evaluated.
For the exploration activity and spatial recognition, control animals and ischemic animals treated with the vehicle or ISQ-201 were placed in the center of the maze and let to explore for 8 min. The total number of arms that the animal entered indistinctly (number of arm entries) and the times that the animal explored consecutively—the three different arms of the maze (number of alternations or triads)—were registered by an observer blind to the treatment.
For the assessment of spatial memory, the control animals and ischemic animals treated with the vehicle or ISQ-201 were placed into one of the arms of the Y maze (start arm) and were allowed to explore the maze with one of the arms closed for 10 min (training trial). After 1 h, the rats were returned to the Y maze by placing them in the start arm and allowing them to freely explore all three arms of the maze for 3 min. The arm of the first choice of entry, the new or old, was registered manually by an observer blind to the treatment.

[4] = test system: transient middle cerebral artery occlusion; experiment: Transient focal cerebral ischemia (tMCAO), infarct size by TTC stain; assay type: in vivo, male C57BL/6 mice; conditions: mice, 48 h after tMCAO
cerebral ischemia = test system: cerebral ischemia; parameters: method as in PMID 26241908; conditions: 0.05 and 0.1 mg/kg intraperitoneal at onset of reperfusion; cited from earlier work

SMILES: CC(C)[C@H]1CC[C@H]2[C@@H]3CCC4=C/C(=[N+](\C)[O-])CC[C@]4(C)[C@H]3CC[C@]12C [ISQ-201]
- clearance ([1]; iv bolus 0.07 mg/kg): 1.75 mL/min
- Vd ([1]; iv bolus 0.07 mg/kg): 0.364 ± 0.11 L
- k el ([1]; iv bolus 0.07 mg/kg): 8.81e-05 s⁻¹
- clearance ([1]; iv bolus 0.25 mg/kg): 0.923 mL/min
- Vd ([1]; iv bolus 0.25 mg/kg): 0.166 ± 0.027 L
- k el ([1]; iv bolus 0.25 mg/kg): 9.53e-05 s⁻¹
- clearance ([1]; iv bolus 1.00 mg/kg): 0.895 mL/min
- Vd ([1]; iv bolus 1.00 mg/kg): 0.3 ± 0.103 L
- k el ([1]; iv bolus 1.00 mg/kg): 7.94e-05 s⁻¹
- half-life ([1]; 0.07 mg/kg, iv bolus 0.07 mg/kg, mean ± SE n=6, read-out: t1/2 (half-life) (converted)): 1.66 ± 0.1 h
- half-life ([1]; 0.25 mg/kg, iv bolus 0.25 mg/kg, mean ± SE n=6, read-out: t1/2 (half-life) (converted)): 1.51 ± 0.12 h
- half-life ([1]; 1 mg/kg, iv bolus 1.00 mg/kg, mean ± SE n=6, read-out: t1/2 (half-life) (converted)): 2.2 ± 0.53 h
- half-life ([1]; iv bolus, 0.07–1.00 mg/kg, read-out: half-life): 1.5 to 2 h
- Cmax ([1]; iv bolus 0.07 mg/kg): 50.6 ± 7.4 ng/mL
- AUC(0-t) ([1]; iv bolus 0.07 mg/kg): 81.1 ± 9.5 ng·h/mL
- C0 ([1]; iv bolus 0.07 mg/kg): 74.6 ± 12.2 ng/mL
- Cmax ([1]; iv bolus 0.25 mg/kg): 330 ± 51.2 ng/mL
- AUC(0-t) ([1]; iv bolus 0.25 mg/kg): 477 ± 42 ng·h/mL
- C0 ([1]; iv bolus 0.25 mg/kg): 490 ± 80.2 ng/mL
- Cmax ([1]; iv bolus 1.00 mg/kg): 1210 ± 300 ng/mL
- AUC(0-t) ([1]; iv bolus 1.00 mg/kg): 2030 ± 429 ng·h/mL
- C0 ([1]; iv bolus 1.00 mg/kg): 1690 ± 424 ng/mL
- Clast ([1]; iv bolus 0.07 mg/kg): 1.53 ± 0.09 ng/mL
- Clast ([1]; iv bolus 0.25 mg/kg): 7.49 ± 0.75 ng/mL
- Clast ([1]; iv bolus 1.00 mg/kg): 42.03 ± 4.42 ng/mL
- Cmax and AUC0-8h relation to dose ([1]; iv bolus, whole studied range 0.07–1.00 mg/kg): linearly related to the dose
- neuronal death vs vehicle, therapeutic window ([2]; 0.05 mg/kg iv given between 0 and 6 h after reperfusion, CA1 and cortex, evaluated at 5 days): significantly decreased
- dead neuron number vs vehicle group ([2]; 0.05 and 0.1 mg/kg iv at reperfusion onset, CA1 and cortex, 5 days of reperfusion): significant reduction
- maximum neuroprotection (Emax), neuronal death assay ([2]; cortex, most potent concentration, 5 days of reperfusion, vs vehicle = 0%): 80%
- maximum neuroprotection (Emax), neuronal death assay ([2]; hippocampal CA1, most potent concentration, 5 days of reperfusion): 31%
- spatial memory (new arm as first choice), Y maze [3]: recovery of values similar to the control group
- exploration activity (number of arm entries), Y maze ([3]; vs control group): no significant differences with the control group
- spatial recognition (number of alternations or triads), Y maze ([3]; vs control group): no significant differences
- infarct area in the brain vs vehicle ([4]; 0.05 mg/kg ip at onset of reperfusion): did not change
- reduction in lesion size with respect to vehicle-treated group ([4]; 0.1 mg/kg ip at onset of reperfusion): 21%
- neuronal death, apoptosis and neurodeficit score (cerebral ischemia): significant decreases
